Data reported in US20060189645A1, “Novel 6-phenylphenantridines” (Altana Pharma AG, priority 2003, published 2006).

system: PDE4; assay: Inhibition of PDE4 activity ([3H]cAMP hydrolysis, cytosol from human neutrophils); assay type: biochemical; details: 0.5 μM cAMP, Motapizone 1 μM to suppress PDE3, 15 min at 37° C.
Method: Method for Measuring Inhibition of PDE4 Activity
PDE4 activity was determined as described by Thompson et al. (Adv Cycl Nucl Res 10: 69-92, 1979) with some modifications (Bauer and Schwabe, Naunyn-Schmiedeberg's Arch Pharmacol 311: 193-198, 1980). At a final assay volume of 200 μl (96 well microtiter plates) the assay mixture contained 20 mM Tris (pH 7.4), 5 mM MgCl2, 0.5 μM cAMP, [^3H]cAMP (about 30,000 cpm/assay), the test compound and an aliquot of cytosol from human neutrophils which mainly contains PDE4 activity as described by Schudt et al. (Naunyn-Schmiedeberg's Arch Pharmacol 344: 682-690, 1991); the PDE3-specific inhibitor Motapizone (1 μM) was included to suppress PDE3 activity originating from contaminating platelets. Serial dilutions of the compounds were prepared in DMSO and further diluted 1:100 (v/v) in the assays to obtain the desired final concentrations of the inhibitors at a DMSO concentration of 1% (v/v) which by itself only slightly affected PDE4 activity.
After preincubation for 5 min at 37° C., the reaction was started by the addition of substrate (cAMP) and the assays were incubated for further 15 min at 37° C. 50 μl of 0.2 N HCl was added to stop the reaction and the assays were left on ice for about 10 min. Following incubation with 25 μg 5′-nucleotidase (Crotalus atrox snake venom) for 10 min at 37° C., the assays were loaded on QAE Sephadex A-25 (1 ml bed volume). The columns were eluted with 2 ml of 30 mM ammonium formiate (pH 6.0) and the eluate was counted for radioactivity. Results were corrected for blank values (measured in the presence of denatured protein) which were below 5% of total radioactivity. […] The IC50-values for the compounds according to the invention for the inhibition of the PDE4 activity were determined from the concentration-inhibition curves by nonlinear-regression.

Row | Inhibition of the PDE4 activity, −log IC50 | Compound
1 | 8.62 | COc1cc2c(cc1OC)[C@H]1CCCC[C@H]1N=C2c1ccc(C(C)=NNC(=O)c2cccnc2)cc1 [Compound 1, Nicotinic acid {1-[4-((4aR,10bR)-8,9-dimethoxy-1,2,3,4,4a,10b-hexahydro-phenanthridin-6-yl)-phenyl]-ethylidene}-hydrazide]
2 | 8.61 | COc1cc2c(cc1OC)[C@H]1CCCC[C@H]1N=C2c1ccc(C(C)=NNC(=O)CC#N)cc1 [Compound 2, Cyano-acetic acid {1-[4-((4aR,10bR)-8,9-dimethoxy-1,2,3,4,4a,10b-hexahydro-phenanthridin-6-yl)-phenyl]-ethylidene}-hydrazide]
3 | 8.71 | COc1cc2c(cc1OC)[C@H]1CCCC[C@H]1N=C2c1ccc(C(C)=NNC(=O)c2ccncc2)cc1 [Compound 3, Isonicotinic acid {1-[4-((4aR,10bR)-8,9-dimethoxy-1,2,3,4,4a,10b-hexahydro-phenanthridin-6-yl)-phenyl]-ethylidene}-hydrazide]
4 | 8.95 | COc1cc2c(cc1OC)[C@H]1CCCC[C@H]1N=C2c1ccc(C(C)=NNC(C)=O)cc1 [Compound 4, Acetic acid {1-[4-((4aR,10bR)-8,9-dimethoxy-1,2,3,4,4a,10b-hexahydro-phenanthridin-6-yl)-phenyl]-ethylidene}-hydrazide]
5 | 8.64 | COc1cc2c(cc1OC)[C@H]1CCCC[C@H]1N=C2c1ccc(C(C)=NNC(N)=O)cc1 [Compound 6, 1-[4-((4aR,10bR)-8,9-Dimethoxy-1,2,3,4,4a,10b-hexahydro-phenanthridin-6-yl)-phenyl]-ethanone-semicarbazone]
6 | 9.38 | COc1cc2c(cc1OC)[C@H]1CCCC[C@H]1N=C2c1ccc(C(=NNC(N)=O)c2ccccc2)cc1 [Compound 7, 1-[4-((4aR,10bR)-8,9-Dimethoxy-1,2,3,4,4a,10b-hexahydro-phenanthridin-6-yl)-phenyl]-1-phenyl-methanone-semicarbazone]
7 | 8.75 | COc1cc2c(cc1OC)C1CCCCC1N=C2c1cccc(C(C)=NNC(N)=O)c1 (centres unmarked) [Compound 37, 1-[3-((4aR10bR)-8,9-Dimethoxy-1,2,3,4,4a,10b-hexahydro-phenanthridin-6-yl)-phenyl]-ethanone-semicarbazone]

system: not given; assay: not given; details: not given

Row | melting point [°C] | Compound
8 | 162 | COc1cc2c(cc1OC)[C@H]1CCCC[C@H]1N=C2c1ccc(C(C)=NNC(=O)c2cccnc2)cc1 [Compound 1, Nicotinic acid {1-[4-((4aR,10bR)-8,9-dimethoxy-1,2,3,4,4a,10b-hexahydro-phenanthridin-6-yl)-phenyl]-ethylidene}-hydrazide]
